Test [1] deals with Brown Norway rats with unilateral optic nerve transection. As to the kind of experiment: Optic nerve transection, optic nerve fiber counting. The test is classed as in vivo, Rattus norvegicus. The conditions noted are these: for FIBER NUMBER ± SEM / PERCENT DIFFERENCE ± SEM in fiber number between transected and normal eye: 10 mg/kg i.p. daily. How it is done:
(§1) All experiments complied with the Association for Research in Vision and Ophthalmology Statement for the Use of Animals in Ophthalmic and Vision Research. 82 male Brown Norway rats (Rattus norvegicus), each weighing approximately 250 gm, were treated using procedures approved by the Animal Care Committee of the Johns Hopkins University School of Medicine. The rats were housed with a 12 hour light/12 hour dark cycle and fed ad libitum.
OPTIC NERVE TRANSECTION: The optic nerve was transected unilaterally in 26 rats under intraperitoneal pentobarbital anesthesia. The conjunctiva was opened with scissors and the optic nerve exposed by traction on extraocular muscles. The transection was performed with microscissors 5 mm posterior to the globe, with specific attention to avoidance of injury to major ocular blood vessels. Immediately after transection, the retina was examined ophthalmoscopically to assure that the retinal arterial blood supply was not disrupted. The conjunctiva was closed with absorbable suture and the eye dressed with antibiotic ointment. Beginning on the day of transection, the rats were treated daily with intraperitoneal injections of either a vehicle (9 rats with 50 mM HEPES-buffered saline) or a NAALADase inhibitor (8 rats with 10 mg/kg of Compound A and 9 rats with 10 mg/kg of Compound B). 5 saline treated rats, 3 Compound A treated rats and 4 Compound B treated rats were sacrificed at 2 weeks, and the remaining rats at 4 weeks, after transection.
(§2) OPTIC NERVE COUNTING: The rats were sacrificed by exsanguination under deep pentobarbital anesthesia. They were perfused through the heart with 2% paraformaldehyde/2% glutaraldehyde in 0.1 M phosphate buffer, pH 7.2, and the eyes with attached optic nerves were removed. A cross-section of the optic nerve from both experimental (glaucoma or transection) and control eyes was removed 1.5 mm posterior to the globe, 1 mm in thickness, and post-fixed in 2% osmium tetroxide in buffer. These were processed into epoxy resin, sectioned at 1 micron and stained with toluidine blue.
(§3) The area of the optic nerve cross-section was measured by outlining its outer border at 10× magnification on an image analysis system (Universal Imaging Corp., Westchester, Pa.) with Synsys digital camera and Metamorph software. Three area measurements were taken and the mean value was determined. To measure the density and fiber diameter distributions, images were captured with a 100× phase contrast objective from 10 different areas of each nerve. These were edited to eliminate non-neural objects and the size of each axon internal to the myelin sheath (its minimum diameter) and the density of axons/square mm were calculated for each image and nerve. The mean density was multiplied by total nerve area to yield fiber number for each nerve. The total fiber number in glaucoma or transection nerves was compared to the normal, fellow eye of each rat to yield a percent loss value. The number of axons counted among the 10 images was an approximately 20% sample of the 80–90,000 axons in normal rat nerves. The person measuring axon number was masked to the protocol conducted on the nerves.

Test [2] relates to Brown Norway rats with unilateral elevation of intraocular pressure. Briefly: Experimental rat glaucoma (IOP elevation), optic nerve fiber counting. The test is classed as in vivo. Conditions: 10 mg/kg i.p. daily. As for the experimental part:
as §1
EXPERIMENTAL GLAUCOMA: Unilateral elevation of intraocular pressure (“IOP”) was produced in 56 rats by microinjection of hypertonic saline into episcleral veins, following procedures described in Morrison, J. et al., IOVS (March 1998) 39:526–531. Beginning on the day of IOP elevation, the rats were treated daily with intraperitoneal injections of either a vehicle (23 rats with 50 mM HEPES-buffered saline) or a NAALADase inhibitor (11 rats with 10 mg/kg of Compound A and 22 rats with 10 mg/kg of Compound B). 11 saline treated rats, 11 Compound A treated rats and 11 Compound B treated rats were sacrificed at 8 weeks, and the remaining rats at 12 weeks, after initial IOP elevation.
as §2, §3

Where [3] appears, read: 2 weeks survival after transection.
[4] abbreviates: 4 weeks survival after transection.

Consider `O=C(O)CCC(CCCS)C(=O)O` (stereo not drawn) [Compound B, 2-(3-sulfanylpropyl)-pentanedioic acid], for which the “remaining axons relative to saline-treated rats” value in test [1] (2 weeks after transection) is “twice”. Besides, the “FIBER NUMBER ± SEM” value in test [1] (setting [3]) is 19,550 ± 5,091; in test [1] (setting [4]) it was 5,162 ± 2,509; in test [2] (8 week group) it was 80785 ± 2121. Further, the “PERCENT DIFFERENCE ± SEM in fiber number between transected and normal eye” value worked out at 75.3 ± 6.6% in test [1] (setting [3]) and 93.4 ± 3.1% in test [1] (setting [4]). For the same compound, the “PERCENT DIFFERENCE ± SEM in fiber number between glaucoma and normal eye” value in test [2] (8 week group, positive = fewer fibers in glaucoma eye) is reported as −0.82 ± 2.97%. Also, the “FIBER NUMBER” value in test [2] (12 week group) stood at 90504 ± 1718. The “PERCENT DIFFERENCE in fiber number between glaucoma and normal eye” value in test [2] (12 week group, positive = fewer fibers in glaucoma eye) is −3.21 ± 2.86%.
